Assay results from ChEMBL document CHEMBL4840300 (J Nat Prod, 2021).

How the values were obtained:
[1] = Cytotoxicity against human HaCaT cells assessed as cell viability at 1 to 10 uM incubated for 24 hrs followed by H2O2 stimulation by celltiter-glo assay relative to control; assay type: cell-based; details: dose 1-10 µM, read-out: Activity
[2] = test system: HaCaT; experiment: Cytoprotective activity against H2O2-induced oxidative stress in human HaCaT cells assessed as increase in cell viability at 10 uM incubated for 24 hrs followed by H2O2 stimulation by celltiter-glo assay relative to control; assay type: functional
[3] = test system: HaCaT; experiment: Effect on cell cycle distribution in human HaCaT cells assessed as <2N cells at 10 uM pretreated for 6 hrs followed by H2O2 challenge for 24 hrs by propidium iodide staining based flow cytometry analysis (Rvb= 1.88%); assay type: functional; details: time 30 hrs
[4] = test system: HaCaT; experiment: Effect on cell cycle distribution in human HaCaT cells assessed as 2N cells at 10 uM pretreated for 6 hrs followed by H2O2 challenge for 24 hrs by propidium iodide staining based flow cytometry analysis (Rvb= 17.9%); assay type: functional; details: time 30 hrs
[5] = test system: HaCaT; experiment: Effect on cell cycle distribution in human HaCaT cells assessed as 4N cells at 10 uM pretreated for 6 hrs followed by H2O2 challenge for 24 hrs by propidium iodide staining based flow cytometry analysis (Rvb= 41.0%); assay type: functional; details: time 30 hrs
[6] = test system: HaCaT; experiment: Effect on cell cycle distribution in human HaCaT cells assessed as >4N cells at 10 uMpretreated for 6 hrs followed by H2O2 challenge for 24 hrs by propidium iodide staining based flow cytometry analysis (Rvb= 11.1%); assay type: functional; details: dose 10 µM; time 30 hrs
[7] = test system: HaCaT; experiment: Effect on cell cycle distribution in human HaCaT cells assessed as accumulation of cells in G2-M phase at 10 uM pretreated for 6 hrs followed by H2O2 challenge for 24 hrs by propidium iodide staining based flow cytometry analysis relative to control; assay type: functional; details: time 30 hrs
[8] = test system: HaCaT; experiment: Cytoprotective activity against H2O2-induced oxidative stress in human HaCaT cells assessed as change in cellular ROS level at 1 uM incubated for 6 hrs followed by H2O2 stimulation measured after 24 hrs by DCF-DA dye based fluorescence analysis (reference value: 8.2); assay type: functional; details: time 30 hrs
[9] = test system: HaCaT; experiment: Cytoprotective activity against H2O2-induced oxidative stress in human HaCaT cells assessed as change in cellular ROS level at 10 uM incubated for 6 hrs followed by H2O2 stimulation measured after 24 hrs by DCF-DA dye based fluorescence analysis (reference value: 8.2); assay type: functional; details: time 30 hrs
[10] = test system: HaCaT; experiment: Antioxidant activity in human HaCaT cells assessed as reduction in mean fluorescence intensity at 10 uM preincubated for 6 hrs followed by H2O2 stimulation at 200 uM measured after 24 hrs by cellROS staining based flow cytometry analysis; assay type: functional; details: time 30 hrs
[11] = test system: HaCaT; experiment: Antioxidant activity in human HaCaT cells assessed as reduction in mean fluorescence intensity at 10 uM preincubated for 6 hrs followed by H2O2 stimulation at 400 uM measured after 24 hrs by cellROS staining based flow cytometry analysis; assay type: functional; details: time 30 hrs
[12] = test system: HaCaT; experiment: Antioxidant activity in human HaCaT cells assessed as reduction in mean fluorescence intensity at 10 uM preincubated for 6 hrs followed by H2O2 stimulation at 600 uM measured after 24 hrs by cellROS staining based flow cytometry analysis; assay type: functional; details: time 30 hrs
[13] = test system: HaCaT; experiment: Antioxidant activity in human HaCaT cells assessed as reduction in mitochondria-derived ROS production by measuring mean fluorescence intensity at 10 uM preincubated for 6 hrs followed by H2O2 stimulation at 200 uM measured after 24 hrs by mitoSOX staining based flow cytometry analysis; assay type: functional; details: time 30 hrs
[14] = test system: HaCaT; experiment: Antioxidant activity in human HaCaT cells assessed as reduction in mitochondria-derived ROS production by measuring mean fluorescence intensity at 10 uM preincubated for 6 hrs followed by H2O2 stimulation at 400 uM measured after 24 hrs by mitoSOX staining based flow cytometry analysis; assay type: functional; details: time 30 hrs
[15] = test system: HaCaT; experiment: Antioxidant activity in human HaCaT cells assessed as reduction in mitochondria-derived ROS production by measuring mean fluorescence intensity at 10 uM preincubated for 6 hrs followed by H2O2 stimulation at 600 uM measured after 24 hrs by mitoSOX staining based flow cytometry analysis; assay type: functional; details: time 30 hrs
[16] = Downregulation of caspase-1 mRNA expression in H2O2- stimulated human HaCaT cells at 10 uM incubated for 6 hrs by SPE based fluorescence amplification assay relative to control; assay type: functional; details: time 30 hrs
[17] = Downregulation of IL-1beta mRNA expression in H2O2- stimulated human HaCaT cells at 10 uM incubated for 6 hrs by SPE based fluorescence amplification assay relative to control; assay type: functional; details: time 30 hrs
[18] = molecular target: T1, Caspase-1 (Homo sapiens) (UniProt P29466); experiment: Inhibition of caspase-1 activity in H2O2-stimulated human HaCaT cells assessed as reduction in enzyme activity at 10 uM using […] as a substrate measured after 2 hrs by colorimetric assay relative to control
T1 sequence (whole entry): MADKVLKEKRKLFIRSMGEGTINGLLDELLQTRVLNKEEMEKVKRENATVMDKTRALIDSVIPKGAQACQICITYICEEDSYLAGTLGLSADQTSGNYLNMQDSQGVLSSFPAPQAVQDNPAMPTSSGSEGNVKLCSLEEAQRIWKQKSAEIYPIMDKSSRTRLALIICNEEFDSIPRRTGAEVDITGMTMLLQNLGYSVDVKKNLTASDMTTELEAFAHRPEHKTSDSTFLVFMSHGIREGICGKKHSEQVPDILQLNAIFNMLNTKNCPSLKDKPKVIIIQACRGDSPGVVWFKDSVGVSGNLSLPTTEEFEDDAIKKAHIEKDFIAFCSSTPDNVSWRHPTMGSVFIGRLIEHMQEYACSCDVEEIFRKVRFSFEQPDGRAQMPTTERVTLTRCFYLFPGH

[19] = Inhibition of IL-1beta expression in H2O2- stimulated human HaCaT cells at 10 uM incubated for 6 hrs followed by H2O2 stimulation measured after 24 hrs by ELISA relative to control; assay type: functional; details: time 30 hrs
[20] = test system: HaCaT; experiment: Anti-pyroptosis activity in human HaCaT cells assessed as reduction in H2O2-induced LDH production at 1 uM incubated for 6 hrs followed by H2O2 stimulation measured after 24 hrs by LDH assay relative to control; assay type: functional; parameters: scale not given: the % may be the effect or the level left; details: time 30 hrs
[21] = test system: HaCaT; experiment: Anti-pyroptosis activity in human HaCaT cells assessed as reduction in H2O2-induced LDH production at 10 uM incubated for 6 hrs followed by H2O2 stimulation measured after 24 hrs by LDH assay relative to control; assay type: functional; parameters: scale not given: the % may be the effect or the level left; details: time 30 hrs
[22] = test system: HaCaT; experiment: Antiapoptotic activity in human HaCaT cells assessed as reduction in apoptotic cells at 10 uM incubated for 6 hrs followed by H2O2 stimulation measured after 24 hrs by Mitotracker red/annexin V double staining based flow cytometry analysis (Rvb= 12.1%); assay type: functional; parameters: scale not given: the % may be the effect or the level left; details: time 30 hrs
[23] = molecular target: T2, Caspase-1 (Homo sapiens, UniProt P29466); experiment: Binding affinity to recombinant human caspase-1 assessed as dissociation constant measured after 90 sec by SPR method
T2 sequence (P29466 whole entry): T1 sequence (whole entry)

[24] = molecular target: T1, Caspase-1 (Homo sapiens); experiment: Binding affinity to recombinant human caspase-1 assessed as association constant measured after 60 sec by SPR method
[25] = molecular target: T2, Caspase-1; experiment: Binding affinity to recombinant human caspase-1 assessed as dissociation constant at equilibrium measured after 30 sec by SPR method

C=C(C)[C@@H]1CCC(C)=C[C@H]1c1c(O)cc(CCCCC)cc1O [CANNABIDIOL]
viability at 24 h, up to 10 µM [1]: > 90% | Activity [2]: 48.6% | Activity [3]: 1.81% | Activity [4]: 20.5% | Activity [5]: 45.9% | Activity [6]: 4.55% | Activity [7]: 16.7% | fold change (FC) [8]: 3.96 | fold change (FC) [9]: 5.13 | Flu intensity [10]: 110 | Flu intensity [11]: 96 | Flu intensity [12]: 171 | Flu intensity [13]: 75 | Flu intensity [14]: 78 | Flu intensity [15]: 73 | Activity [16]: 32.9% | Activity [17]: 50.9% | inhibition [18]: 15.7% | inhibition at 10 µM [19]: 16.2% | Activity [20]: 20.7% | Activity [21]: 23.6% | Activity [22]: 6.36% | Kd [23]: 18.8 nM | Ka [24]: 416 M⁻¹ s⁻¹ | Kd [25]: 0.078 s⁻¹
